Source: US8008547B2, “Glyphosate-N-acetyltransferase (GAT) genes” (E.I. duPont de Nemours, priority 2000, dated 2011)

Columns and labels:
[1] = test system: Nicotiana tabacum L. Xanthi leaf explants; experiment: Tobacco shoot regeneration with glyphosate selection; format: cell-based; details: explants lacking a GAT gene
Description: Agrobacterium-mediated transformation of plant cells occurs at low efficiencies. To allow propagation of transformed cells while inhibiting proliferation of non-transformed cells, a selectable marker is needed. Antibiotic markers for kanamycin and hygromycin and the herbicide modifying gene bar, which detoxifies the herbicidal compound phosphinothricin, are examples of selectable markers used in plants (Methods in Molecular Biology, 1995, 49:9-18). […] An evolved GAT gene (0—5B8), SEQ ID NO: 190, was cloned between a plant promoter (enhanced strawberry vein banded virus) and a […] terminator and introduced into the T-DNA region of the binary vector pMAXY3793 suitable for transformation of plant cells via Agrobacterium tumefaciens EHA105 as shown in FIG. 12. A screenable GUS marker was present in the T-DNA to allow confirmation of transformation. Transgenic tobacco shoots were generated using glyphosate as the only selecting agent.
Axillary buds of Nicotiana tabacum L. Xanthi were subcultured on half-strength MS medium with sucrose (1.5%) and Gelrite (0.3%) under 16-h light (35-42 μEinsteins m^−2 s^−1, cool white fluorescent lamps) at 24° C. every 2-3 weeks. Young leaves were excised from plants after 2-3 weeks subculture and were cut into 3×3 mm segments. A. tumefaciens EHA105 was inoculated into LB medium and grown overnight to a density of A600=1.0. […]

tobacco plants = experiment: Herbicide spray tests of GAT expressing tobacco plants; format: in vivo, Nicotiana tabacum
Description: Tobacco shoots generated as described in EXAMPLE 9 were excised from the explants and transferred to basal root induction (BRI) medium composed of half-strength Murashige and Skoog (MS) medium, pH 5.7, with 1.5% sucrose, 0.3% Gelrite, 0-200 uM glyphosate and 400 ug/ml Timentin. Rooted plants and axillary shoots were clonally propagated by cutting the stem and transferring it to fresh BRI medium until the desired number of clones was obtained. Rooted plants were carefully removed from the solid medium. Prior to placing the plants into small pots of soil, the roots were washed to remove any remaining Gelrite. A protective plastic cover was kept over the plants for at least one week until the plants were well established.
To determine if GAT expressing tobacco plants could tolerate simulated field rate sprays of glyphosate, clonal lines of several events per GAT variant were tested. A typical test was set up as follows: One clone from each event was sprayed with 1 ml of solution containing the isopropylamine salt of glyphosate (Sigma P5671) and 0.125% Triton X-100, pH 6.8 such that the amount of active ingredient sprayed was equivalent to that present in commercial glyphosate products. For example, to achieve 32 oz/acre (1×) of herbicide containing 40% active ingredient (“ai”), 2.4 ul of 40% ai formulation was diluted into 1 ml water and sprayed on a plant in a 4-inch square pot (16 in^2). A mock application (0×) with surfactant only was also included. In some cases a second spray was applied 1-4 weeks later. Plants were kept in controlled growth rooms at 25° C. and 70% humidity with 16 hr light.
Seed-grown wild type plants were also sprayed. […] All 0× plants were healthy, including the non-GAT control plants. Three weeks later all of the surviving plants were sprayed with an 8× dose.

yeast strain YPH499 = experiment: Glyphosate selection of transformed yeast cells; format: cell-based, Saccharomyces cerevisiae; details: CSM-YNB-glucose medium lacking aromatic amino acids with added glyphosate
Description: Selection markers for yeast transformation are usually auxotrophic genes that allow growth of transformed cells on a medium lacking the specific amino acid or nucleotide. Because Saccharomyces cerevisiae is sensitive to glyphosate, GAT can also be used as a selectable marker. […] This plasmid contains an E. coli origin of replication and a gene conferring carbenicillin resistance as well as a TRP1, tryptophan auxotroph selectable marker for yeast transformation.
The GAT containing construct is transformed into E. coli XL1 Blue (Statagene) and plated on LB carbenicillin (50 ug/ml) agar medium. Plasmid DNA is prepared and used to transform yeast strain YPH499 (Stratagene) using a transformation kit (Bio 101). Equal amounts of transformed cells are plated on CSM-YNB-glucose medium (Bio 101) lacking all aromatic amino acids (tryptophan, tyrosine, and phenylalanine) with added glyphosate. For comparison, p424TEF lacking the GAT gene is also introduced into YPH499 and plated as described. […] The presence of the GAT containing vector in glyphosate selected colonies can be confirmed by re-isolation of the plasmid and restriction digest analysis.

| Molecule | glyphosate concentration that completely inhibited any shoot formation [1] | plant response two weeks after glyphosate spray (tobacco plants; 0.5, 2 or 4× glyphosate, vector only and seed grown wild type tobacco) | plant response after 8× dose (tobacco plants; 8× glyphosate, non-GAT 0× control tobacco plants) | function as selectable marker in yeast (yeast strain YPH499) | plant response two weeks after glyphosate spray (tobacco plants; 0.5, 2 or 4× glyphosate (1× = 32 oz/acre of 40% ai), transgenic GAT tobacco) | survival after second spray (tobacco plants; 8× glyphosate dose three weeks later, transgenic GAT tobacco) |
| --- | --- | --- | --- | --- | --- | --- |
| O=C(O)CNCP(=O)(O)O [glyphosate, N-phosphonomethylglycine] | greater than 20 uM | stopped growing, wilted, and turned brown | died within two weeks | – | – | – |
| SEQ ID NO: 196: evolved GAT gene (nucleic acid, Synthetic DNA Sequence; 0_6D10, evolved GAT gene) DNA: ATGCTAGAGGTGAAACCGATTAACGCAGAGGATACCTATGAACTAAGGCATAAAATACTCAGACCAAACCAGCCGTTAGAAGTGTGTATGTATGAAACCGATTTACTTCGTGGTGCATTTCACTTAGGCGGCTTTTACAGGGGCAAACTGATTTCCATAGCTTCATTCCACCAGGCCGAGCACTCAGACCTCCAAGGCCAGAAACAGTACCAGCTCCGAGGTATGGCTACCTTGGAAGGTTATCGTGATCAGAAAGCGGGATCGAGTCTAATTAGACACGCTGAACAAATTCTTCGTAAGAGGGGGGCGGACATGCTTTGGTGCAATGCGCGGACATCCGCCTCAGGCTACTACAAAAAGTTAGGCTTCAGCGAGCAGGGAGAGGTATTTGAAACGCCGCCAGTAGGACCTCACATCCTGATGTATAAAAGGCTCACA | – | – | – | efficient selectable marker | survived the spraying procedure without signs of glyphosate damage | all GAT plants survived |
